In one series the target is T1, ΔF508-CFTR (Homo sapiens, UniProt P13569, DEL508-508).
T1 construct: expressed in transfected cells
As to the kind of experiment: Assays for detecting and measuring ΔF508-CFTR correction properties (membrane potential optical assay). It is filed as cell-based. Conditions: PercentActivity; NIH3T3 mouse fibroblasts stably expressing ΔF508-CFTR. From the text:
Assays for Detecting and Measuring ΔF508-CFTR Correction Properties of Compounds
Membrane Potential Optical Methods for Assaying ΔF508-CFTR Modulation Properties of Compounds
The optical membrane potential assay utilized voltage-sensitive FRET sensors described by Gonzalez and Tsien (See Gonzalez, J. E. and R. Y. Tsien (1995) “Voltage sensing by fluorescence resonance energy transfer in single cells” Biophys J 69(4): 1272-80, and Gonzalez, J. E. and R. Y. Tsien (1997) “Improved indicators of cell membrane potential that use fluorescence resonance energy transfer” Chem Biol 4(4): 269-77) in combination with instrumentation for measuring fluorescence changes such as the Voltage/Ion Probe Reader (VIPR) (See, Gonzalez, J. E., K. Oades, et al. (1999) “Cell-based assays and instrumentation for screening ion-channel targets” Drug Discov Today 4(9): 431-439).
These voltage sensitive assays are based on the change in fluorescence resonant energy transfer (FRET) between the membrane-soluble, voltage-sensitive dye, DiSBAC2(3), and a fluorescent phospholipid, CC2-DMPE, which is attached to the outer leaflet of the plasma membrane and acts as a FRET donor. […] The changes in fluorescence emission were monitored using VIPR™ II, which is an integrated liquid handler and fluorescent detector designed to conduct cell-based screens in 96- or 384-well microtiter plates. […]

Series [1] is described as follows: Solubility of Compound 1 with and without PEG cosolvent and vitamin E TPGS. Type of series: physicochemical. An excerpt:
The PEG cosolvent and vitamin E TPGS induced micelle formation increase Compound 1 solubility from 7 micrograms to several milligrams per g of solution.

T1 sequence (P13569 with tags, fused parts or gaps DEL508-508): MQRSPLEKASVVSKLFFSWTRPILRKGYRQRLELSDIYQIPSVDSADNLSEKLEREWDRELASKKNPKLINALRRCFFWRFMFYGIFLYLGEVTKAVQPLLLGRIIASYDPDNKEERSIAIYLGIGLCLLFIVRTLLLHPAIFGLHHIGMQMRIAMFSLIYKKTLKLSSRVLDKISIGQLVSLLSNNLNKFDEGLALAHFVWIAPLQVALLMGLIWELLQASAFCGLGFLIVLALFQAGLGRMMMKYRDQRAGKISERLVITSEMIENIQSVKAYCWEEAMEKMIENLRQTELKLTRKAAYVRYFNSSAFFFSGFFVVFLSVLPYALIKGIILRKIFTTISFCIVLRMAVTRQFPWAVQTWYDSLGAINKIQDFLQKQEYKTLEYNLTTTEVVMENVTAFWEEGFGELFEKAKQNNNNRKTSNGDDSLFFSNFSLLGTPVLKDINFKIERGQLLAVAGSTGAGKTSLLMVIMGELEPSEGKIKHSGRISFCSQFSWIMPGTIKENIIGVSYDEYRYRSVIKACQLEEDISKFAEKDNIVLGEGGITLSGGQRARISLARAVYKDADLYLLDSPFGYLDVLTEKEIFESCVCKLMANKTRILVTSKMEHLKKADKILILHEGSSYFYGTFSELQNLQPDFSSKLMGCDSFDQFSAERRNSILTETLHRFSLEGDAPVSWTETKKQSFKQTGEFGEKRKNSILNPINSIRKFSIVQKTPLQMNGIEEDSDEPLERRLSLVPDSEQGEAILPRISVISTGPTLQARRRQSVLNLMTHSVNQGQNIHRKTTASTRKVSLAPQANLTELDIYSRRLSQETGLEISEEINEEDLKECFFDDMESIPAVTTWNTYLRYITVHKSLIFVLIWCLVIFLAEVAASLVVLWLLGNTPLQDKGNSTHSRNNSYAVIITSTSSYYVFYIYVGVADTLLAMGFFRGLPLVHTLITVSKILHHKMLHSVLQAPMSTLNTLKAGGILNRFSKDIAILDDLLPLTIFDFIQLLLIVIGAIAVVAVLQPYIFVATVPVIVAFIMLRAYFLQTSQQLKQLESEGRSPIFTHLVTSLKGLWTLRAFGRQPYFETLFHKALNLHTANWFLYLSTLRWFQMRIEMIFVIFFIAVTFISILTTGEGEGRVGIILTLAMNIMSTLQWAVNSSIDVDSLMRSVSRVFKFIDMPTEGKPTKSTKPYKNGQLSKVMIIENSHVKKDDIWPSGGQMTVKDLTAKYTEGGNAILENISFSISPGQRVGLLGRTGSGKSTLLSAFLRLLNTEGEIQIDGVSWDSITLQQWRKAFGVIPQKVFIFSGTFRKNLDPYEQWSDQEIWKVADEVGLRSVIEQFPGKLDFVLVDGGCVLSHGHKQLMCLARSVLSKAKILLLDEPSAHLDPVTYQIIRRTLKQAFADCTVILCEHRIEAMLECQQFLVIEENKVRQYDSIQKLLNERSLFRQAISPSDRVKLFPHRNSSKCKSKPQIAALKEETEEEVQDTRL

Turning to `CC(C)(CO)c1cc2cc(NC(=O)C3(c4ccc5c(c4)OC(F)(F)O5)CC3)c(F)cc2n1C[C@@H](O)CO` [Compound 1, (R)-1-(2,2-difluorobenzo[d][1,3]dioxol-5-yl)-N-(1-(2,3-dihydroxypropyl)-6-fluoro-2-(1-hydroxy-2-methylpropan-2-yl)-1H-indol-5-yl)cyclopropanecarboxamide], the “Binned MaxEfficacy” value on ΔF508-CFTR was “+++ (PercentActivity Bins: + <= 25.0 < ++ <= 100.0 < +++)”. The “Compound 1 solubility” value in series [1] (with PEG cosolvent and vitamin E TPGS induced micelle formation) was “several”; in series [1] (without PEG cosolvent and vitamin E TPGS), 7 micrograms per g of solution.

For the origin of these results see patent US8563593B2, “Formulations of (R)-1-(2,2-difluorobenzo[D] [1,3] dioxol-5-yl)-N-(1-(2,3-dihydroxypropyl)-6-fluoro-2-(1-hydroxy-2-methylpropan-2-yl)-1H-indol-5-yl)cyclopropanecarboxamide” (Vertex Pharmaceuticals Incorporated, priority 2010, dated 2013).
